Experimental data: patent publication US20210198256A1, “COMPOUNDS FOR THE DEGRADATION OF BRD9 OR MTH1” (C4 Therapeutics, Inc., priority 2018, published 2021)

tested on: SMARTCAR-MTH1-wt-HiBiT (Jurkat.7 cells); assay: HiBit Lytic Assay (HiBit DC50, MTH1 degraders of Table 2); assay type: cell-based, human; settings: Jurkat.7 SMARTCAR-MTH1-wt-HiBiT cells, compound treatment time 4 hr, 11-point half log dose response
How it was run: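 Jurkat.7 cells expressing SMARTCAR-MTH1-wt-HiBiT were treated at 37° C with 11-point half-log dilutions (top final 1000 nM or 833 nM, duplicates, 0.1% DMSO). Remaining HiBiT-tagged protein was read by Nano-Glo HiBiT lytic luminescence, normalized to media-only and DMSO controls.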

`O=C(CNc1cccc2c1C(=O)N(C1CCC(=O)NC1=O)C2=O)NCCCCNC(=O)c1ccc(-c2cc3c(NC45CC(C4)C5)c(C(=O)NC4CC4)cnc3cc2F)cc1F` (centres unmarked) [Compound 424, 4-(3-bicyclo[1.1.1]pentanylamino)-N-cyclopropyl-6-[4-[4-[[2-[[2-(2,6-dioxo-3-piperidyl)-1,3-dioxo-isoindolin-4-yl]amino]acetyl]amino]butylcarbamoyl]-3-fluoro-phenyl]-7-fluoro-quinoline-3-carboxamide] and `CNc1c(C(=O)NC2CC2)cnc2cc(F)c(-c3ccc(C(=O)NCCCCn4cc(CNc5cccc6c5C(=O)N(C5CCC(=O)NC5=O)C6=O)nn4)c(F)c3)cc12` (centres unmarked) [Compound 411, N-cyclopropyl-6-[4-[4-[4-[[[2-(2,6-dioxo-3-piperidyl)-1,3-dioxo-isoindolin-4-yl]amino]methyl]triazol-1-yl]butylcarbamoyl]-3-fluoro-phenyl]-7-fluoro-4-(methylamino)quinoline-3-carboxamide] cannot be ordered by DC50: < 0.1 µM for the first, < 0.1 µM for the second.

`CNC(=O)c1cnc2ccc(-c3ccc(C(=O)NCCCCNC(=O)C(C)Nc4cccc5c4C(=O)N(C4CCC(=O)NC4=O)C5=O)c(F)c3)cc2c1Nc1ccccc1` (centres unmarked) [Compound 372, 4-anilino-6-[4-[4-[2-[[2-(2,6-dioxo-3-piperidyl)-1,3-dioxo-isoindolin-4-yl]amino]propanoylamino]butylcarbamoyl]-3-fluoro-phenyl]-N-methyl-quinoline-3-carboxamide] and `CNC(=O)c1cnc2ccc(-c3ccc(C(=O)NCCCCNC(=O)COc4cccc5c4C(=O)N(C4CCC(=O)NC4=O)C5=O)c(C)c3)cc2c1Nc1ccccc1` (centres unmarked) [Compound 354, 4-anilino-6-[4-[4-[[2-[2-(2,6-dioxo-3-piperidyl)-1,3-dioxo-isoindolin-4-yl]oxyacetyl]amino]butylcarbamoyl]-3-methyl-phenyl]-N-methyl-quinoline-3-carboxamide] cannot be ordered by DC50: < 0.1 µM for the first, < 0.1 µM for the second.

`CC(Nc1cccc2c1C(=O)N(C1CCC(=O)NC1=O)C2=O)c1cn(CCCCNC(=O)c2ccc(-c3cc4c(Nc5ccccc5)c(C(=O)NC5CC5)cnc4cc3C(F)(F)F)cc2F)nn1` (centres unmarked) [Compound 434, N-cyclopropyl-6-(4-((4-(4-(1-((2-(2,6-dioxopiperidin-3-yl)-1,3-dioxoisoindolin-4-yl)amino)ethyl)-1H-1,2,3-triazol-1-yl)butyl)carbamoyl)-3-fluorophenyl)-4-(phenylamino)-7-(trifluoromethyl)quinoline-3-carboxamide] and `CNC(=O)c1cnc2cc(C(F)(F)F)c(-c3ccc(C(=O)NCCCCNC(=O)CNc4cccc5c4C(=O)N(C4CCC(=O)NC4=O)C5=O)c(F)c3)cc2c1Nc1ccccc1` (centres unmarked) [Compound 375, 6-(4-((4-(2-((2-(2,6-dioxopiperidin-3-yl)-1,3-dioxoisoindolin-4-yl)amino)acetamido)butyl)carbamoyl)-3-fluorophenyl)-N-methyl-4-(phenylamino)-7-(trifluoromethyl)quinoline-3-carboxamide] cannot be ordered by DC50: < 0.1 µM for the first, < 0.1 µM for the second.

`CNC(=O)c1cnc2ccc(-c3ccc(C(=O)NCCCCn4cc(CNc5cccc6c5C(=O)N(C5CCC(=O)NC5=O)C6=O)nn4)cc3)cc2c1Nc1ccccc1` (centres unmarked) [Compound 356, 4-anilino-6-[4-[4-[4-[[[2-(2,6-dioxo-3-piperidyl)-1,3-dioxo-isoindolin-4-yl]amino]methyl]triazol-1-yl]butylcarbamoyl]phenyl]-N-methyl-quinoline-3-carboxamide] and `CNC(=O)c1cnc2ccc(-c3ccc(C(=O)NCCCCN4CCN(c5cccc6c5C(=O)N(C5CCC(=O)NC5=O)C6=O)CC4)cc3)cc2c1Nc1ccccc1` (centres unmarked) [Compound 359, 4-anilino-6-[4-[4-[4-[2-(2,6-dioxo-3-piperidyl)-1,3-dioxo-isoindolin-4-yl]piperazin-1-yl]butylcarbamoyl]phenyl]-N-methyl-quinoline-3-carboxamide] cannot be ordered by DC50: < 0.1 µM for the first, < 0.1 µM for the second.

`CNC(=O)c1cnc2ccc(C(=O)NCCCCCCCCCCNC(=O)COc3cccc4c3C(=O)N(C3CCC(=O)NC3=O)C4=O)cc2c1Nc1ccccc1` (centres unmarked) [Compound 450, N6-(10-(2-((2-(2,6-dioxopiperidin-3-yl)-1,3-dioxoisoindolin-4-yl)oxy)acetamido)decyl)-N3-methyl-4-(phenylamino)quinoline-3,6-dicarboxamide] and `CNC(=O)c1cnc2ccc(C(=O)NCCCCCCNC(=O)COc3cccc4c3C(=O)N(C3CCC(=O)NC3=O)C4=O)cc2c1Nc1ccccc1` (centres unmarked) [Compound 458, N6-(6-(2-((2-(2,6-dioxopiperidin-3-yl)-1,3-dioxoisoindolin-4-yl)oxy)acetamido)hexyl)-N3-methyl-4-(phenylamino)quinoline-3,6-dicarboxamide] cannot be ordered by DC50: < 0.1 µM for the first, < 0.1 µM for the second.

`CCNC(=O)c1cnc2ccc(NCCCCCCCCCCNC(=O)COc3cccc4c3C(=O)N(C3CCC(=O)NC3=O)C4=O)cc2c1Nc1ccccc1` (centres unmarked) [Compound 452, 6-((10-(2-((2-(2,6-dioxopiperidin-3-yl)-1,3-dioxoisoindolin-4-yl)oxy)acetamido)decyl)amino)-N-ethyl-4-(phenylamino)quinoline-3-carboxamide] and `CNC(=O)c1cnc2ccc(NCCCCCCCCCCNC(=O)C(C)Oc3cccc4c3C(=O)N(C3CCC(=O)NC3=O)C4=O)cc2c1Nc1ccccc1` (centres unmarked) [Compound 442, 6-((10-(2-((2-(2,6-dioxopiperidin-3-yl)-1,3-dioxoisoindolin-4-yl)oxy)propanamido)decyl)amino)-N-methyl-4-(phenylamino)quinoline-3-carboxamide] cannot be ordered by DC50: < 0.1 µM for the first, < 0.1 µM for the second.

`CNC(=O)c1cnc2ccc(N3CCC(C(=O)NCCCCNC(=O)COc4cccc5c4C(=O)N(C4CCC(=O)NC4=O)C5=O)CC3)cc2c1Nc1ccccc1` (centres unmarked) [Compound 347, 4-anilino-6-[4-[4-[[2-[2-(2,6-dioxo-3-piperidyl)-1,3-dioxo-isoindolin-4-yl]oxyacetyl]amino]butylcarbamoyl]-1-piperidyl]-N-methyl-quinoline-3-carboxamide] and `CNC(=O)c1cnc2cc(OC)c(-c3ccc(C(=O)NCCCCNC(=O)COc4cccc5c4C(=O)N(C4CCC(=O)NC4=O)C5=O)cc3)cc2c1Nc1ccccc1` (centres unmarked) [Compound 475, 6-(4-((4-(2-((2-(2,6-dioxopiperidin-3-yl)-1,3-dioxoisoindolin-4-yl)oxy)acetamido)butyl)carbamoyl)phenyl)-7-methoxy-N-methyl-4-(phenylamino)quinoline-3-carboxamide] cannot be ordered by DC50: < 0.1 µM for the first, < 0.1 µM for the second.

`NC(=O)c1cnc2ccc(NCCCCCCCCCCNC(=O)CNc3cccc4c3C(=O)N(C3CCC(=O)NC3=O)C4=O)cc2c1Nc1ccccc1` (centres unmarked) [Compound 464, 6-((10-(2-((2-(2,6-dioxopiperidin-3-yl)-1,3-dioxoisoindolin-4-yl)amino)acetamido)decyl)amino)-4-(phenylamino)quinoline-3-carboxamide] and `CNC(=O)c1cnc2cc(OC)c(NCCCCCCCCCCNC(=O)COc3cccc4c3C(=O)N(C3CCC(=O)NC3=O)C4=O)cc2c1Nc1ccccc1` (centres unmarked) [Compound 454, 6-((10-(2-((2-(2,6-dioxopiperidin-3-yl)-1,3-dioxoisoindolin-4-yl)oxy)acetamido)decyl)amino)-7-methoxy-N-methyl-4-(phenylamino)quinoline-3-carboxamide] cannot be ordered by DC50: < 0.1 µM for the first, < 0.1 µM for the second.

`CN(CC(=O)NCCCCCC(=O)N1CCC(c2ccc3ncc(C(N)=O)c(Nc4ccccc4)c3c2)CC1)c1cccc2c1C(=O)N(C1CCC(=O)NC1=O)C2=O` (centres unmarked) [Compound 312, 4-anilino-6-[1-[6-[[2-[[2-(2,6-dioxo-3-piperidyl)-1,3-dioxo-isoindolin-4-yl]-methyl-amino]acetyl]amino]hexanoyl]-4-piperidyl]quinoline-3-carboxamide] and `CN(CC(=O)NCCOCCNC(=O)c1ccc(-c2ccc3ncc(C(N)=O)c(Nc4ccccc4)c3c2)cc1)c1cccc2c1C(=O)N(C1CCC(=O)NC1=O)C2=O` (centres unmarked) [Compound 311, 4-anilino-6-[4-[2-[2-[[2-[[2-(2,6-dioxo-3-piperidyl)-1,3-dioxo-isoindolin-4-yl]-methyl-amino]acetyl]amino]ethoxy]ethylcarbamoyl]phenyl]quinoline-3-carboxamide] cannot be ordered by DC50: < 1 µM for the first, < 1 µM for the second.

`CNC(=O)c1cnc2ccc(-c3nc(C(=O)NCCCCNC(=O)CNc4cccc5c4C(=O)N(C4CCC(=O)NC4=O)C5=O)cs3)cc2c1Nc1ccccc1` (centres unmarked) [Compound 387, 2-[4-anilino-3-(methylcarbamoyl)-6-quinolyl]-N-[4-[[2-[[2-(2,6-dioxo-3-piperidyl)-1,3-dioxo-isoindolin-4-yl]amino]acetyl]amino]butyl]thiazole-4-carboxamide] and `CNC(=O)c1cnc2ccc(-c3ccc(NCCCCNC(=O)CNc4cccc5c4C(=O)N(C4CCC(=O)NC4=O)C5=O)nc3)cc2c1Nc1ccccc1` (centres unmarked) [Compound 365, 4-anilino-6-[6-[4-[[2-[[2-(2,6-dioxo-3-piperidyl)-1,3-dioxo-isoindolin-4-yl]amino]acetyl]amino]butylamino]-3-pyridyl]-N-methyl-quinoline-3-carboxamide] cannot be ordered by DC50: < 0.1 µM for the first, < 0.1 µM for the second.

`CNC(=O)c1cnc2cc(OC)c(-c3ccc(C(=O)NCCCCNC(=O)CNc4cccc5c4C(=O)N(C4CCC(=O)NC4=O)C5=O)cc3)cc2c1Nc1ccccc1` (centres unmarked) [Compound 344, 6-(4-((4-(2-((2-(2,6-dioxopiperidin-3-yl)-1,3-dioxoisoindolin-4-yl)amino)acetamido)butyl)carbamoyl)phenyl)-7-methoxy-N-methyl-4-(phenylamino)quinoline-3-carboxamide] and `CNC(=O)c1cnc2ccc(-c3ccc(C(=O)NCCCNC(=O)CN(C)c4cccc5c4C(=O)N(C4CCC(=O)NC4=O)C5=O)cc3)cc2c1Nc1ccccc1` (centres unmarked) [Compound 473, 6-(4-((3-(2-((2-(2,6-dioxopiperidin-3-yl)-1,3-dioxoisoindolin-4-yl)(methyl)amino)acetamido)propyl)carbamoyl)phenyl)-N-methyl-4-(phenylamino)quinoline-3-carboxamide] cannot be ordered by DC50: < 0.1 µM for the first, < 0.1 µM for the second.

In the case of `CNc1c(C(=O)NC2CC2)cnc2cc(F)c(-c3ccc(C(=O)NCCCCCCCCc4ccc5c(n4)CN(C4CCC(=O)NC4=O)C5=O)c(F)c3)cc12` (centres unmarked) [Compound 408, N-cyclopropyl-6-[4-[8-[6-(2,6-dioxo-3-piperidyl)-5-oxo-7H-pyrrolo[3,4-b]pyridin-2-yl]octylcarbamoyl]-3-fluoro-phenyl]-7-fluoro-4-(methylamino)quinoline-3-carboxamide], the DC50 was < 0.1 µM.
